According to US20080045504A1, “Benzonitrile Derivatives to Treat Musculoskeletal Frailty” (PFIZER PRODUCTS INC., priority 2004, published 2008):
Marks after values point to notes of the source that are not given here.

Tests used:
[1] = test system: orchiectomized (ORX) immature male rat; assay: Orchiectomized immature rat assay (levator ani and ventral prostate weights); assay type: in vivo, Sprague Dawley rat; conditions: 4 days, TP 10 mg/kg = 100%, ORX control = 0%; for % TP Control LA: levator ani weight; for % TP Control VP: ventral prostate weight
Procedure: All animal studies were performed in accordance with the Guide for Care and Use of Laboratory Animals (National Research Council, 1996). Twenty-one day old male Sprague Dawley rats were acquired from Taconic, Inc, Germantown, N.Y. Rats were housed five per cage at standard vivarium conditions ([…], 12-h light/dark cycle), with normal chow diet and tap water ad libitum. At 25 days of age, the rats underwent bilateral orchiectomy surgery (ORX) after sedation with 3-5% Isoflurane. Following the surgery, the animals were treated immediately by daily subcutaneous (s.c.) injection with vehicle (sesame oil), testosterone propionate (TP, 10 mg/kg) and test compounds. The dosage of test compound administered is in mg/kg. At the end of the 4 days of administrations, the animals were sacrificed in a carbon dioxide chamber, the ventral prostate (VP) and levator ani muscle complex (LA) were removed and weighed. The increase in the weights of VP or LA by TP was expressed as 100%, and the ORX control as baseline, 0%; the response of the test compounds was calculated as the percentage increase compared to TP.

[2] = test system: aged intact or orchidectomized (ORX) male rat; assay: Effect on body weight, body composition and bone density in the aged intact and orchidectomized male rat; assay type: in vivo, SD rat
Procedure: The purpose of this study is to test the effects of test compound in aged intact or orchidectomized (ORX) male rat model.
Male SD rats at 11 months of age were sham-operated or ORX. One day post-surgery they were treated with test compound by subcutaneous injections (s.c.) at the average dose of 3 or 10 mg/kg per day for 8 weeks. The subcutaneous injections were given 2 times (Tuesday and Friday) per week with the first injection (Tuesday) at 9 or 30 mg/kg (in sesame oil, total 0.3 ml), and the second injection (Friday) at 12 or 40 mg/kg (in sesame oil, total 0.4 ml). All rats were injected subcutaneously with calcein at 10 mg/kg on 12 and 2 days before necropsy.

[3] = test system: aged ovariectomized (OVX) female rat; assay: Effect on body weight, body composition and bone density in the aged ovariectomized female rat; assay type: in vivo, Sprague-Dawley rat; conditions: OVX rats
Procedure: Effect of Selective Androgen Receptor Modulator on Body Weight. Body Composition and Bone Density in the Aged Intact and Ovariectomized Female Rat The purpose of this study is to test the effects of test compound in aged intact or ovariectomized (OVX) female rat model.
Sprague-Dawley female rats were sham-operated or OVX at 18 months of age, while a group of rats was necropsied at day 0 to serve as baseline controls. One day post-surgery, the rats were treated with either vehicle or test compound. The vehicle or test compound was administered twice a week (Tuesday and Friday) by subcutaneous injection (s.c.), with the test compound being administered at an average dose of 10 milligrams per kilogram of body weight per day (10 mg/kg/day).
All rats were given s.c. injection of 10 mg/kg of calcein (Sigma, St. Louis, Mo.) for fluorescent bone label 2 and 12 days before necropsy. On the day of necropsy, all rats under ketamine/xylazine anesthesia were weighed and underwent dual-energy X-ray absorptiometry (DXA, QDR-4500/W, Hologic Inc., Waltham, Mass.) equipped with Rat Whole Body Scan software for lean and fat body mass determination. The rats were necropsied, then autopsied and blood was obtained by cardiac puncture. The distal femoral metaphysis and femoral shafts from each rat were analyzed by peripheral quantitative computerized tomography (pQCT), and volumetric total, trabecular and cortical bone mineral content and density were determined.
Peripheral Quantitative Computerized Tomography (pQCT) Analysis: Excised femurs were scanned by a pQCT X-ray machine (Stratec XCT Research M, Norland Medical Systems, Fort Atkinson, Wis.) with software version 5.40. A 1 millimeter (mm) thick cross section of the femur metaphysis was taken at 5.0 mm ([…], a primary cancellous bone site) and 13 mm (femoral shafts, a cortical bone site) proximal from the distal end with a voxel size of 0.10 mm. Cortical bone was defined and analyzed using contour mode 2 and cortical mode 4. An outer threshold setting of 340 mg/cm^3 was used to distinguish the cortical shell from soft tissue and an inner threshold of 529 mg/cm^3 to distinguish cortical bone along the endocortical surface. Trabecular bone was determined using peel mode 4 with a threshold of 655 mg/cm^3 to distinguish (sub)cortical from cancellous bone. An additional concentric peel of 1% of the defined cancellous bone was used to ensure that (sub)cortical bone was eliminated from the analysis. Volumetric content, density, and area were determined for both trabecular and cortical bone (Jamsa T. et al., Bone 23:155-161, 1998; Ke, H. Z. et al., Journal of Bone and Mineral Research, 16:765-773, 2001). Using the above setting, it was determined that the ex vivo precision of volumetric content, density and area of total bone, trabecular, and cortical regions ranged from 0.99% to 3.49% with repositioning.
The preceding protocol was carried out using the compound of Example 1 as the test compound. The vehicle employed in experimental groups II-IV was 100% sesame oil. The rats in groups II-IV were dosed s.c. twice a week (on Tuesday and Friday) with 0.3 ml and 0.4 ml. This dosing provided an average daily dose of 10 mg/kg/day of the compound of Example 1 for experimental group IV.
The values provided in Table 3 are the mean values±the standard error measurement. In Table 3 and the experimental protocol the following abbreviations or symbols had the following definitions. DFM: distal femoral metaphysis; FS: femoral shafts; g: grams; mg/cm^3: milligrams per cubic centimeter; mg/mm: milligrams per millimeter; a: p<0.05 vs. Baseline; b: p<0.05 vs. Sham; c: p<0.05 vs. OVX; mg/kg/day: milligrams per kilogram of body weight per day; and ml: milliliter.

[4] = Group II (sham, 3 mg/kg/d) compared to Group I (sham + vehicle)
[5] = sham and ORX rats, 3 or 10 mg/kg/d s.c. for 8 weeks
[6] = sham and ORX rats, 3 or 10 mg/kg/d s.c. for 8 weeks, dose dependant, except Group II
[7] = 10 mg/kg/day s.c. twice a week, DXA, mean ± SEM
[8] = 10 mg/kg/day s.c., distal femoral metaphysis, pQCT, mean ± SEM
[9] = 10 mg/kg/day s.c., femoral shafts, pQCT, mean ± SEM
[10] = 10 mg/kg/day, compared to OVX rats administered vehicle

Compound: CC[C@H]1CCCCN1c1ccc(C#N)c(C(F)(F)F)c1 [Example 1, 4-(2-(S)-Ethyl-piperidin-1-yl)-2-trifluoromethyl-benzonitrile]
- % TP Control LA ([1]; 3 mg/kg s.c.): 53%
- % TP Control LA ([1]; 10 mg/kg s.c.): 93%
- % TP Control LA ([1]; 30 mg/kg s.c.): 100%
- % TP Control VP ([1]; 3 mg/kg s.c.): 11%
- % TP Control VP ([1]; 10 mg/kg s.c.): 30%
- % TP Control VP ([1]; 30 mg/kg s.c.): 33%
- fat body mass [2, 4]: slight increase
- lean body mass [2, 4]: slight decrease
- prostate weight ([2]; Group II sham rats (3 mg/kg/d)): did not increase
- prostate weight ([2]; Group III (sham, 10 mg/kg/d) compared to Group I): slight increase
- prostate weight ([2]; ORX rats, 3 or 10 mg/kg/d, dose dependent): increased prostate weight in ORX rats to the level of sham controls
- levitor anni weight [2, 5]: increased
- total density in the femoral shaft (FS) [2, 5]: increased
- trabecular density in the distal femoral metaphysis (DFM) [2, 5]: increased
- fat body mass [2, 6]: decreased
- lean body mass [2, 6]: increased
- Body Weight ([3]; 10 mg/kg/day s.c. twice a week in sesame oil, mean ± SEM): 459 ± 10.7^b,c g
- Fat Body Mass [3, 7]: 121.7 ± 7.9^c g
- lean body mass [3, 7]: 319.0 ± 7.7^c g
- Total Density of DFM [3, 8]: 602.2 ± 12.3^b mg/cm^3
- Trabecular Density of DFM [3, 8]: 310.4 ± 0.16 mg/mL
- Cortical Content of FS [3, 9]: 11.8 ± 0.15^c mg/mm
- Total Content of FS [3, 9]: 11.9 ± 0.16^c mg/mm
- effect on body weight [3, 10]: negligible effect
- effect on fat body mass [3, 10]: significantly decreased
- effect on lean body mass [3, 10]: significantly increased
